# Source: patent US12421211B2, “Heterocyclic compounds” (Hoffmann-La Roche Inc., priority 2021, dated 2025)
# Where a name gives a salt, the structure may show the parent alone.
# System: Acinetobacter baumannii ATCC17961
# Assay: Antimicrobial susceptibility testing: 90% growth inhibitory concentration (IC90) determination
# Assay type: cell-based
# Conditions: Acinetobacter baumannii, ATCC17961, 16 h, 90% growth inhibitory concentration, Acinetobacter baumannii ATCC17961, Iso-Sensitest broth, OD 600 nm over 16 h; read-out: ATCC 17961 IC90
# Outline: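 A. baumannii ATCC17961 at ~5×10^5 CFU/ml in Iso-Sensitest broth exposed to 10-point twofold dilutions (e.g. 50–0.097 μM final), 35±2° C. OD600 read every 20 minutes over 16h; IC50 and IC90 derived from inhibition during logarithmic growth.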
row,SMILES,IC90
1,"COCCn1ncc(-c2ccc(-c3cnc(C(=O)Nc4ccc(C(=O)N5CCN(C(=O)C6CCNCC6)CC5)c(Cl)c4)n3C)c(F)c2F)c1C [Example E11, N-[3-chloro-4-[4-(piperidine-4-carbonyl)piperazine-1-carbonyl]phenyl]-5-[2,3-difluoro-4-[1-(2-methoxyethyl)-5-methyl-pyrazol-4-yl]phenyl]-1-methyl-imidazole-2-carboxamide; 2,2,2-trifluoroacetic acid]",61 nM
2,"Cn1c(-c2ccc(-c3cn[nH]c3C3=CCOCC3)c(F)c2F)cnc1C(=O)Nc1ccc(C(=O)N2CCN(C(=O)C3CC[N+](C)(C)CC3)CC2)c(Cl)c1 [Example I7, N-[3-chloro-4-[4-(1,1-dimethylpiperidin-1-ium-4-carbonyl)piperazine-1-carbonyl]phenyl]-5-[4-[5-(3,6-dihydro-2H-pyran-4-yl)-1H-pyrazol-4-yl]-2,3-difluoro-phenyl]-1-methyl-imidazole-2-carboxamide;formate]",760 nM
3,"Cc1nn(CC(=O)NC(C)(C)C)cc1-c1ccc(-c2cnc(C(=O)Nc3ccc(C(=O)N4CCN(C(=O)C5CC[N+](C)(C)CC5)CC4)c(Cl)c3)n2C)c(F)c1F [Example G2, 5-[4-[1-[2-(tert-butylamino)-2-oxo-ethyl]-3-methyl-pyrazol-4-yl]-2,3-difluoro-phenyl]-N-[3-chloro-4-[4-(1,1-dimethylpiperidin-1-ium-4-carbonyl)piperazine-1-carbonyl]phenyl]-1-methyl-imidazole-2-carboxamide; formate]",320 nM
4,"COCCn1cc(-c2ccc(-c3cnc(C(=O)Nc4ccc(C(=O)N5CCN(C(=O)[C@@H]6C[C@@H](O)C[N+]6(C)C)CC5)c(Cl)c4)n3C)c(F)c2F)c(C)n1 [Example D7, N-[3-chloro-4-[4-[(2S,4R)-4-hydroxy-1,1-dimethyl-pyrrolidin-1-ium-2-carbonyl]piperazine-1-carbonyl]phenyl]-5-[2,3-difluoro-4-[1-(2-methoxyethyl)-3-methyl-pyrazol-4-yl]phenyl]-1-methyl-imidazole-2-carboxamide; formate]",150 nM
5,"Cc1nn(CC(=O)Nc2ccccn2)cc1-c1ccc(-c2cnc(C(=O)Nc3ccc(C(=O)N4CCN(C(=O)C5CC[N+](C)(C)CC5)CC4)c(Cl)c3)n2C)c(F)c1F [Example G14, N-[3-chloro-4-[4-(1,1-dimethylpiperidin-1-ium-4-carbonyl)piperazine-1-carbonyl]phenyl]-5-[2,3-difluoro-4-[3-methyl-1-[2-oxo-2-(2-pyridylamino)ethyl]pyrazol-4-yl]phenyl]-1-methyl-imidazole-2-carboxamide; formate]",89 nM
6,"COCCn1cc(-c2ccc(-c3cnc(C(=O)Nc4ccc(C(=O)N5CCN(C(=O)C[N+]6(C)C[C@H](OC)[C@@H](N)C6)CC5)c(Cl)c4)n3C)c(F)c2F)c(C)n1 (stereo partly drawn) [Example C5, N-[4-[4-[2-[(3S,4S)-3-amino-4-methoxy-1-methyl-pyrrolidin-1-ium-1-yl]acetyl]piperazine-1-carbonyl]-3-chloro-phenyl]-5-[2,3-difluoro-4-[1-(2-methoxyethyl)-3-methyl-pyrazol-4-yl]phenyl]-1-methyl-imidazole-2-carboxamide; formic acid; formate]",240 nM
7,"COCCn1ncc(-c2ccc(-c3cnc(C(=O)Nc4ccc(C(=O)N5CCN(C(=O)[C@@H]6C[C@@H](O)CN6)CC5)c(C)c4)n3C)c(F)c2F)c1C [Example E8, 5-[2,3-difluoro-4-[1-(2-methoxyethyl)-5-methyl-pyrazol-4-yl]phenyl]-N-[4-[4-[(2S,4R)-4-hydroxypyrrolidine-2-carbonyl]piperazine-1-carbonyl]-3-methyl-phenyl]-1-methyl-imidazole-2-carboxamide]",200 nM
8,"Cc1c(-c2ccc(-c3cnc(C(=O)Nc4ccc(C(=O)N5CCN(C(=O)[C@@H]6C[C@@H](O)C[N+]6(C)C)CC5)c(Cl)c4)n3C)c(F)c2F)cnn1CCCO [Example F17, N-[3-chloro-4-[4-[(2S,4R)-4-hydroxy-1,1-dimethyl-pyrrolidin-1-ium-2-carbonyl]piperazine-1-carbonyl]phenyl]-5-[2,3-difluoro-4-[1-(3-hydroxypropyl)-5-methyl-pyrazol-4-yl]phenyl]-1-methyl-imidazole-2-carboxamide; formate]",270 nM
9,"COCCn1cc(-c2ccc(-c3cnc(C(=O)Nc4ccc(C(=O)N5CCN(C(=O)C6CCNCC6)CC5)c(Cl)c4)n3C)c(F)c2F)cn1 [Example E21, N-[3-chloro-4-[4-(piperidine-4-carbonyl)piperazine-1-carbonyl]phenyl]-5-[2,3-difluoro-4-[1-(2-methoxyethyl)pyrazol-4-yl]phenyl]-1-methyl-imidazole-2-carboxamide]",290 nM
10,"COCCn1ncc(-c2ccc(-c3cnc(C(=O)Nc4ccc(C(=O)N5CCN(C(=O)C6CC[N+](C)(C)CC6)CC5)c(Cl)c4)n3C)c(F)c2F)c1C [Example A4, N-[3-chloro-4-[4-(1,1-dimethylpiperidin-1-ium-4-carbonyl)piperazine-1-carbonyl]phenyl]-5-[2,3-difluoro-4-[1-(2-methoxyethyl)-5-methyl-pyrazol-4-yl]phenyl]-1-methyl-imidazole-2-carboxamide; formate]",110 nM
11,"COCCn1ncc(-c2ccc(-c3cnc(C(=O)Nc4ccc(C(=O)N5CCC(NS(=O)(=O)C6CC[N+](C)(C)CC6)CC5)c(Cl)c4)n3C)c(F)c2F)c1C [Example D37, N-[3-chloro-4-[4-[(1,1-dimethylpiperidin-1-ium-4-yl)sulfonylamino]piperidine-1-carbonyl]phenyl]-5-[2,3-difluoro-4-[1-(2-methoxyethyl)-5-methyl-pyrazol-4-yl]phenyl]-1-methyl-imidazole-2-carboxamide; formate]",150 nM
12,"COc1ccc(-c2[nH]ncc2-c2ccc(-c3cnc(C(=O)Nc4ccc(C(=O)N5CCN(C(=O)C6CC[N+](C)(C)CC6)CC5)c(Cl)c4)n3C)c(F)n2)cc1 [Example F59, N-[3-chloro-4-[4-(1,1-dimethylpiperidin-1-ium-4-carbonyl)piperazine-1-carbonyl]phenyl]-5-[2-fluoro-6-[5-(4-methoxyphenyl)-1H-pyrazol-4-yl]-3-pyridyl]-1-methyl-imidazole-2-carboxamide; formate]",750 nM

# Same assay, conditions: Acinetobacter baumannii, ATCC17961, 16 h, read-out: ATCC 17961 IC90
row,SMILES,IC90
1,"COCCn1ncc(-c2ccc(-c3cnc(C(=O)Nc4ccc(C(=O)N5CCC(N(C)C(=O)C6CC[N+](CC(=O)O)(CC7CNC7)CC6)CC5)c(Cl)c4)n3C)c(F)c2F)c1C (centres unmarked) [Example O1, 2-[1-(azetidin-3-ylmethyl)-4-[[1-[2-chloro-4-[[5-[2,3-difluoro-4-[1-(2-methoxyethyl)-5-methyl-pyrazol-4-yl]phenyl]-1-methyl-imidazole-2-carbonyl]amino]benzoyl]-4-piperidyl]-methyl-carbamoyl]piperidin-1-ium-1-yl]acetic acid formate]",354 nM
2,"COc1ccc(NC(=O)Cn2cc(-c3ccc(-c4cnc(C(=O)Nc5ccc(C(=O)N6CCN(C(=O)C7CC[N+](C)(C)CC7)CC6)c(Cl)c5)n4C)c(F)c3F)c(C)n2)nn1 [Example L4, N-[3-chloro-4-[4-(1,1-dimethylpiperidin-1-ium-4-carbonyl)piperazine-1-carbonyl]phenyl]-5-[2,3-difluoro-4-[1-[2-[(6-methoxypyridazin-3-yl)amino]-2-oxo-ethyl]-3-methyl-pyrazol-4-yl]phenyl]-1-methyl-imidazole-2-carboxamide; formate]",106 nM
